Data: the Deep4Chem optical property database
Each block holds one compound with its values, some of them ahead of it.

Experiment: solvent given as SMILES

emission maximum (in C1CCCCC1): 360 nm | emission maximum (in C1COCCO1): 380 nm | emission maximum (in CC#N): 435 nm | emission maximum (in CCO): 460 nm | emission maximum (in OCC(F)(F)F): 485 nm
Structure (SMILES): Cc1cc2c(o1)c(C)cc1ccc(=O)oc12

emission maximum (in CC#N): 383 nm | emission maximum (in CO): 380 nm
Structure (SMILES): C1=Cc2ccccc2Cc2ccccc21

emission maximum (in ClCCl): 639 nm
Structure (SMILES): CCN1c2ccc(C3=CC(c4ccccc4)=[O+][B-](F)(F)O3)cc2Sc2cc(C3=CC(c4ccccc4)=[O+][B-](F)(F)O3)ccc21

emission maximum (in ClC(Cl)Cl): 544 nm | emission maximum (in ClCCl): 578 nm
Structure (SMILES): COc1cc2cc(OC)c(-c3ccc([N+](=O)[O-])cc3)cc2cc1-c1ccc([N+](=O)[O-])cc1

emission maximum (in CO): 816 nm
Structure (SMILES): CC1(C)C(/C=C/C2=C(c3ccc(C(=O)O)cc3)C(=C/C=C3/N(CCCCS(=O)(=O)[O-])c4ccccc4C3(C)C)/CC2)=[N+](CCCCS(=O)(=O)[O-])c2ccccc21

emission maximum (in C1CCOC1): 481 nm
Structure (SMILES): N#Cc1c(N2CCCCC2)cc(-c2ccc3ccc4cccc5ccc2c3c45)c2c1Cc1ccccc1-2

emission maximum (in C1CCCCC1): 364 nm
Structure (SMILES): c1ccc(-c2c3c(cc4c2-c2ccccc2C4)-c2ccccc2C3)cc1

emission maximum (in CCO): 640 nm | emission maximum (in ClCCl): 627 nm | emission maximum (in O): 645 nm
Structure (SMILES): CCOC(=O)c1ccccc1-c1c2ccc(=[N+](CC)CC)cc-2oc2c1oc1cc(N)ccc12

emission maximum (in CC#N): 480 nm | emission maximum (in CO): 500 nm | emission maximum (in ClCCl): 481 nm
Structure (SMILES): COc1ccc(O)c(-c2[nH]c(=O)n3c2-c2ccccc2C3=O)c1

emission maximum (in C1CCOC1): 490 nm | emission maximum (in CC#N): 505 nm | emission maximum (in ClC(Cl)Cl): 500 nm | emission maximum (in ClCCl): 502 nm
Structure (SMILES): COc1cc(/C=C/c2nc3ccccc3s2)c(OC)cc1/C=C/c1nc(C)nc(/C=C/c2cc(OC)c(/C=C/c3nc4ccccc4s3)cc2OC)n1

emission maximum (in ClCCl): 500 nm
Structure (SMILES): c1ccc(-c2ccc3c4ccc(-c5ccccc5)c5c(-c6ccccc6)ccc(c6cccc2c63)c54)cc1

emission maximum (in ClCCl): 483 nm
Structure (SMILES): CCOc1cccc2c1O[B-](F)(F)[n+]1c3c(c4c(c1-2)-c1ccccc1CC4)-c1ccccc1CC3

emission maximum (in CC#N): 525 nm | emission maximum (in CCO): 529 nm | emission maximum (in CN(C)C=O): 538 nm | emission maximum (in O): 527 nm
Structure (SMILES): COC(=O)c1ccccc1-c1c2ccc(=[NH2+])cc-2oc2cc(N)ccc12

emission maximum (in CC#N): 455 nm | emission maximum (in CCO): 492 nm
Structure (SMILES): CC1(C)CC(=O)c2cc(F)cc(F)c2N1

emission maximum (in CCO): 438 nm | emission maximum (in ClCCl): 531 nm
Structure (SMILES): O=Cc1cnc(-c2c3ccccc3cc3ccccc23)nc1

emission maximum (in CN(C)C=O): 423 nm
Structure (SMILES): Cc1ccc2[nH]c(-c3ccc(-c4ccc(-c5ccc(-c6nc7cc(C)ccc7[nH]6)cc5)c(F)c4)cc3)nc2c1

emission maximum (in ClC(Cl)Cl): 473 nm
Structure (SMILES): CCCC1(CCC)c2cc(C=C(C#Cc3ccccc3)C#Cc3ccccc3)ccc2-c2ccc(C=C(C#Cc3ccccc3)C#Cc3ccccc3)cc21

emission maximum (in ClCCl): 455 nm
Structure (SMILES): COc1cc(OC)cc(-c2ccc(C3=CC(c4ccccc4)=C(c4ccccc4)C3)cc2)c1

emission maximum (in ClC(Cl)Cl): 548 nm
Structure (SMILES): CCCCCCN1C(=O)c2cc(-c3ccc(-n4c5ccccc5c5ccccc54)cc3)c(-c3ccc(-n4c5ccccc5c5ccccc54)cc3)cc2C1=O
emission maximum (in c1ccc2c(c1)c1ccccc1n2-c1ccc(-c2ccc(-n3c4ccccc4c4ccccc43)cc2)cc1): 481 nm

emission maximum (in C1CCCCC1): 645 nm | emission maximum (in CCOC(C)=O): 675 nm
Structure (SMILES): CC1=[N+]2C(=C(c3ccc4c(c3)Cc3ccccc3-4)c3ccc(C)n3[B-]2(F)F)C=C1c1cc2n(c1)[B-](F)(F)[N+]1=CC=CC1=C2c1c(C)cc(C)cc1C

emission maximum (in ClC(Cl)Cl): 571 nm
Structure (SMILES): C[Si](C)(C)C#Cc1c2c(=O)c3ccccc3c2c(C#C[Si](C)(C)C)c2c(=O)c3ccccc3c12

emission maximum (in CO): 651 nm
Structure (SMILES): C(/C=C/C1=[NH+]c2cccc3cccc1c23)=c1/[nH]c2cccc3cccc1c32

emission maximum (in ClCCl): 384 nm
Structure (SMILES): O=P(c1ccccc1)(c1ccccc1)c1cccc(-n2c(-c3ccccc3P(=O)(c3ccccc3)c3ccccc3)nc3ccccc32)c1

emission maximum (in C1CCCCC1): 397 nm | emission maximum (in C1COCCO1): 418 nm | emission maximum (in CC#N): 428 nm | emission maximum (in CN(C)C=O): 424 nm | emission maximum (in CO): 428 nm | emission maximum (in O): 480 nm | emission maximum (in OCC(O)CO): 451 nm | emission maximum (in OCCO): 440 nm
Structure (SMILES): O=C1NC(=O)/C(=C\c2ccccc2O)S1

emission maximum (in ClC(Cl)Cl): 415 nm
Structure (SMILES): CCc1ccc(-n2c3ccccc3c3cc4c(cc32)c2ccccc2n4-c2ccc(CC)cc2)cc1

emission maximum (in CS(C)=O): 532 nm | emission maximum (in ClC(Cl)Cl): 474 nm
Structure (SMILES): CCCCn1cc(/C=C/c2cc(=O)oc3cc(C)ccc23)c2ccccc21

emission maximum (in CC#N): 452 nm
Structure (SMILES): C[C@@]12SC(Cl)=CC1=c1nc(-c3ccccc3)[nH]c1=C1C=C(Cl)S[C@]12C

emission maximum (in CCO): 454 nm
Structure (SMILES): O=c1c2cc(F)c(O)cc2n(-c2ccccc2)c2cc(O)c(F)cc12

emission maximum (in ClCCl): 446 nm
Structure (SMILES): CC1(C)c2ccccc2-c2cc3c(cc21)c1ccccc1n3-c1ccc2ncccc2c1

emission maximum (in C1COCCO1): 436 nm | emission maximum (in CC#N): 432 nm | emission maximum (in CCCCOCCCC): 430 nm | emission maximum (in CCOC(C)=O): 433 nm
Structure (SMILES): Clc1nc(Nc2ccccc2)nc(Nc2ccc3cc4ccccc4cc3c2)n1

Continued, compound first:

Structure (SMILES): C=CCN(CC=C)c1ccc(-c2cc(-c3ccc(N(CC=C)CC=C)cc3)cc(-c3ccc(N(CC=C)CC=C)cc3)c2)cc1
emission maximum (in ClCCl): 397.56 nm

Structure (SMILES): O=Cc1cc(O)c(C=O)cc1O
emission maximum (in C1CCOC1): 468 nm | emission maximum (in C1COCCO1): 468 nm | emission maximum (in CC#N): 474 nm | emission maximum (in CC(C)=O): 470 nm | emission maximum (in CCCO): 491 nm | emission maximum (in CCO): 491 nm | emission maximum (in CN(C)C=O): 492 nm | emission maximum (in CN(C)P(=O)(N(C)C)N(C)C): 493 nm | emission maximum (in CNC=O): 479 nm | emission maximum (in CO): 492 nm | emission maximum (in CS(C)=O): 495 nm | emission maximum (in NC=O): 490 nm

Structure (SMILES): CC(=O)[B-]1(C(C)=O)OC(c2ccccc2)=CC(c2ccccc2)=[O+]1
emission maximum (in CC#N): 400 nm | emission maximum (in ClC(Cl)(Cl)Cl): 402 nm

Structure (SMILES): CC1(C)c2ccccc2N(c2ccc(-c3cc(C#N)c(C#N)cc3-c3ccc(N4c5ccccc5C(C)(C)c5ccccc54)cc3)cc2)c2ccccc21
emission maximum (in Cc1ccccc1): 532 nm | emission maximum (in c1cc(-c2cccc(-n3c4ccccc4c4ccccc43)c2)cc(-n2c3ccccc3c3ccccc32)c1): 499 nm

Structure (SMILES): c1ccc(N(c2ccccc2)c2ccc(-c3ccc(-c4ccc(-c5ccc(-c6ccc(N(c7ccccc7)c7ccccc7)cc6)s5)c5nsnc45)s3)cc2)cc1
emission maximum (in ClC(Cl)Cl): 690 nm

Structure (SMILES): C(#Cc1cc2ccc3cccc4ccc(c1)c2c34)c1ccccc1
emission maximum (in Cc1ccccc1): 399 nm

Structure (SMILES): COc1cc2c(cc1OC)C1=C3C(=O)N4C=Cc5cc(OC)c(OC)cc5C4=C3C(=O)N1C=C2
emission maximum (in CN(C)C=O): 602 nm | emission maximum (in ClC(Cl)Cl): 597 nm

Structure (SMILES): c1ccc2c(c1)[nH]c1c3[nH]c4ccccc4c3c3nsnc3c21
emission maximum (in CN(C)C=O): 493 nm | emission maximum (in Cc1ccccc1): 456 nm | emission maximum (in ClCCl): 489 nm

Structure (SMILES): Oc1ccccc1C1=NC2c3cccc4cccc(c34)C2N1c1ccccc1 (stereo unspecified)
emission maximum (in Cc1ccccc1): 575 nm

Structure (SMILES): c1cc2ccc1-c1ccc(cc1)-c1ccc(s1)-c1ccc(cc1)-c1ccc(cc1)-c1ccc(s1)-c1ccc(cc1)-c1ccc(cc1)-c1ccc-2s1
emission maximum (in C1CCOC1): 523 nm

Structure (SMILES): CCCCCCCCCCn1c(-c2cc(-c3nc4ccccc4n3CCCCCCCCCC)cc(-c3nc4ccccc4n3CCCCCCCCCC)c2)nc2ccccc21
emission maximum (in C1CCOC1): 360.5 nm

Structure (SMILES): CCCCN(CCCC)c1ccc(C#Cc2cc(C#Cc3ccc(C(F)(F)F)cc3)c(C#Cc3ccc(N(CCCC)CCCC)cc3)cc2C#Cc2ccc(C(F)(F)F)cc2)cc1
emission maximum (in ClCCl): 546 nm | emission maximum (in c1ccccc1): 506 nm

Structure (SMILES): N#Cc1cc(-n2c3ccccc3c3cccnc32)c(-n2c3ccccc3c3cccnc32)cc1C#N
emission maximum (in CC#N): 504.42 nm | emission maximum (in CCCCCC): 386.98 nm | emission maximum (in Cc1ccccc1): 417.44 nm | emission maximum (in ClCCl): 468.37 nm | emission maximum (in c1cc(-n2c3ccccc3c3ccccc32)cc(-n2c3ccccc3c3ccccc32)c1): 441.06 nm

Structure (SMILES): c1ccc(-c2nc(-c3ccccc3)nc(-c3ccc(-n4c5ccccc5c5cc6c(cc54)C4(c5ccccc5-c5ccccc54)c4ccccc4-6)cc3)n2)cc1
emission maximum (in C1CCOC1): 492.65 nm | emission maximum (in CCCCCC): 396.27 nm | emission maximum (in Cc1ccccc1): 432 nm | emission maximum (in ClCCl): 501.47 nm | emission maximum (in O=P(c1ccccc1)(c1ccccc1)c1ccccc1Oc1ccccc1P(=O)(c1ccccc1)c1ccccc1): 470 nm

Structure (SMILES): Cc1cc(C)c(C)c(-c2cc(-c3c(C)c(C)cc(C)c3C)c3ccc4c(-c5c(C)c(C)cc(C)c5C)cc(-c5c(C)c(C)cc(C)c5C)c5ccc2c3c54)c1C
emission maximum (in ClCCl): 412 nm

Structure (SMILES): CCCCCCc1ccc(-n2c3[n+](c4c5ccccc5c5ccccc5c42)[B-](C)(C)c2cc(N(c4ccccc4)c4ccccc4)ccc2-3)cc1
emission maximum (in C1CCOC1): 435 nm | emission maximum (in CC#N): 446 nm | emission maximum (in Cc1ccccc1): 428 nm | emission maximum (in ClCCl): 437 nm

Structure (SMILES): CC1(C)c2ccccc2N(c2ccc(-c3ncccn3)cc2)c2ccccc21
emission maximum (in Cc1ccccc1): 448 nm | emission maximum (in O=P(c1ccccc1)(c1ccccc1)c1ccc2oc3ccc(P(=O)(c4ccccc4)c4ccccc4)cc3c2c1): 457 nm

Structure (SMILES): CCN(CC)c1ccc2cc(/C=C/C3=C4CC/C(=C\c5cc6ccc(N(CC)CC)cc6oc5=O)C4=[O+][B-](F)(F)O3)c(=O)oc2c1
emission maximum (in C1COCCO1): 675 nm | emission maximum (in CC#N): 758 nm | emission maximum (in CC(C)=O): 734 nm | emission maximum (in CCOC(C)=O): 693 nm | emission maximum (in CN(C)C=O): 758 nm | emission maximum (in CS(C)=O): 780 nm | emission maximum (in Cc1ccccc1): 658 nm | emission maximum (in ClC(Cl)Cl): 706 nm | emission maximum (in ClCCl): 730 nm

Structure (SMILES): O=Cc1ccc(N(c2ccc(C=O)cc2)c2ccc(-c3ccc4c(c3)C(=O)c3ccccc3C4=O)cc2)cc1
emission maximum (in C1CCOC1): 662 nm | emission maximum (in CCCCCC): 493 nm | emission maximum (in CCOC(C)=O): 654 nm | emission maximum (in CCOCC): 585 nm | emission maximum (in Cc1ccccc1): 558 nm | emission maximum (in ClC(Cl)(Cl)Cl): 541 nm | emission maximum (in ClCCl): 685 nm

Structure (SMILES): CCn1c(-c2ccc(-c3ccc(-c4ccc(-c5n(CC)c6cc(C)ccc6[n+]5CC)cc4)cc3)cc2)[n+](CC)c2ccc(C)cc21
emission maximum (in O): 397 nm

Structure (SMILES): N#Cc1nn(-c2cccc(C(F)(F)F)c2)nc1N1CCCC1
emission maximum (in CC#N): 430 nm

Structure (SMILES): CN(C)c1ccc(C#Cc2cc(C#Cc3ccc(N(C)C)cc3)c3ccc4c(C#Cc5ccc(C(F)(F)F)cc5)cc(C#Cc5ccc(N(C)C)cc5)c5ccc2c3c54)cc1
emission maximum (in ClCCl): 576 nm
